Test results taken from US10738028B2, “Spiro three-membered ring, spiro five-membered ring peptide deformylase inhibitor and use thereof in antibacteria and anti-tumor” (priority 2016, dated 2020).

How the values were obtained:
Format in all cases: cell-based
[1] = test system: methicillin-sensitive Staphylococcus aureus (MSSA); experiment: MIC, two-fold agar dilution (CLSI), clinical isolates
Procedure, shortened: (§1)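 MIC values come from two-fold agar dilution run per CLSI antimicrobial susceptibility testing procedure.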

[2] = test system: methicillin-sensitive Staphylococcus epidermidis (MSSE); experiment: as above
Procedure, shortened: as §1

[3] = test system: Enterococcus faecium (EFM); experiment: as above
Procedure, shortened: as §1

[4] = test system: Escherichia coli (including ESBLs, non-ESBLs); experiment: as above
Procedure, shortened: as §1

[5] = test system: methicillin-resistant Staphylococcus aureus (MRSA); experiment: as above
Procedure, shortened: as §1

[6] = test system: Enterococcus faecalis (EFA); experiment: as above
Procedure, shortened: as §1

[7] = test system: Streptococcus pneoumoniae (SPN); experiment: as above
Procedure, shortened: as §1

[8] = test system: Moraxella catarrhalis (BCA); experiment: as above
Procedure, shortened: as §1

[9] = test system: methicillin-resistant Staphylococcus epidermidis (MRSE); experiment: as above
Procedure, shortened: as §1

[10] = test system: HCT-116 colorectal cancer cell line; experiment: CCK-8 proliferation inhibition; conditions: concentration of 30 μM, 72 hours, CCK-8
Procedure, shortened: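 Growth inhibition is read by CCK-8 (1:10 dilution) after 72 h of compound exposure. HCT-116 cells grow in McCoy's 5A containing 10% newborn bovine serum at 2000 cells/well, with 1‰ DMSO as vehicle control.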

[11] = test system: A549 lung cancer cell line; experiment: CCK-8 proliferation inhibition; conditions: concentration of 30 μM
Procedure, shortened: (§2)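 Plating at 2000 cells/well, then incubation overnight at 37° C. Next, a range of compound concentrations for 72 hours (control 1‰ DMSO). Finally, medium decanted and CCK-8 diluted 1:10 added.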

[12] = test system: BEL-7402 liver cancer cell line; experiment: CCK-8 proliferation inhibition; conditions: concentration of 30 μM
Procedure, shortened: as §2

[13] = test system: MGC-803 gastric cancer cell line; experiment: CCK-8 proliferation inhibition; conditions: Homo sapiens, MGC-803, 72 h, concentration of 30 μM
Procedure, shortened: as §2

Question: Which Anti-bacterial activity (MIC), strain MSSA 15-3 ([1]; clinical isolate MSSA 15-3) does the source give for `CCCC[C@H](CC(=O)NO)C(=O)N1CC2(CCCC2)C[C@H]1C(=O)Nc1ccc(F)cn1` [Example 78, (S)—N-(5-fluoropyridin-2-yl)-2-((R)-2-(2-(hydroxyamino)-2-oxoethyl)hexanoyl)-2-spiro[4.4]nonane-3-carboxamide] here?
Answer: The Anti-bacterial activity (MIC), strain MSSA 15-3 was 0.5 µg/mL.

Question: What about the Anti-bacterial activity (MIC), strain MSSA 15-4 ([1]; clinical isolate MSSA 15-4) of the same compound?
Answer: The Anti-bacterial activity (MIC), strain MSSA 15-4 was 0.125 µg/mL.

Question: And the Anti-bacterial activity (MIC), strain MSSA 15-5 ([1]; clinical isolate MSSA 15-5)?
Answer: Its Anti-bacterial activity (MIC), strain MSSA 15-5 is 0.03 µg/mL.

Question: What about the Anti-bacterial activity (MIC), strain MSSA 15-6 ([1]; clinical isolate MSSA 15-6) of the same compound?
Answer: The Anti-bacterial activity (MIC), strain MSSA 15-6 was > 32 µg/mL.

Question: And the Anti-bacterial activity (MIC), strain MSSE 15-3 ([2]; clinical isolate MSSE 15-3)?
Answer: Its Anti-bacterial activity (MIC), strain MSSE 15-3 is 0.25 µg/mL.

Question: And the Anti-bacterial activity (MIC), strain MSSE 15-4 ([2]; clinical isolate MSSE 15-4)?
Answer: Its Anti-bacterial activity (MIC), strain MSSE 15-4 is 0.25 µg/mL.

Question: And the Anti-bacterial activity (MIC), strain MSSE 15-5 ([2]; clinical isolate MSSE 15-5)?
Answer: The Anti-bacterial activity (MIC), strain MSSE 15-5 was 0.25 µg/mL.

Question: And the Anti-bacterial activity (MIC), strain MSSE 15-6 ([2]; clinical isolate MSSE 15-6)?
Answer: Its Anti-bacterial activity (MIC), strain MSSE 15-6 is 0.03 µg/mL.

Question: What about the Anti-bacterial activity (MIC) ([3]; strain EFM 15-1) of the same compound?
Answer: The Anti-bacterial activity (MIC) was > 32 µg/mL.

Question: What about the Anti-bacterial activity (MIC) ([3]; strain EFM 15-2) of the same compound?
Answer: Its Anti-bacterial activity (MIC) is > 32 µg/mL.

Question: What about the Anti-bacterial activity (MIC) ([3]; strain EFM 15-3) of the same compound?
Answer: Its Anti-bacterial activity (MIC) is > 32 µg/mL.

Question: And the Anti-bacterial activity (MIC) ([3]; strain EFM 15-4)?
Answer: Its Anti-bacterial activity (MIC) is 2 µg/mL.

Question: What about the Anti-bacterial activity (MIC) ([3]; strain EFM 15-5) of the same compound?
Answer: The Anti-bacterial activity (MIC) was 0.25 µg/mL.

Question: And the Anti-bacterial activity (MIC) ([3]; strain EFM 15-6)?
Answer: Its Anti-bacterial activity (MIC) is 1 µg/mL.

Question: And the Anti-bacterial activity (MIC), strain ECO+ 15-1 ([4]; clinical isolate ECO+ 15-1)?
Answer: The Anti-bacterial activity (MIC), strain ECO+ 15-1 was 16 µg/mL.

Question: And the Anti-bacterial activity (MIC), strain ECO+ 15-2 ([4]; clinical isolate ECO+ 15-2)?
Answer: The Anti-bacterial activity (MIC), strain ECO+ 15-2 was > 32 µg/mL.

Question: And the Anti-bacterial activity (MIC), strain ECO+ 15-3 ([4]; clinical isolate ECO+ 15-3)?
Answer: The Anti-bacterial activity (MIC), strain ECO+ 15-3 was > 32 µg/mL.

Question: What about the Anti-bacterial activity (MIC), strain ECO+ 15-4 ([4]; clinical isolate ECO+ 15-4) of the same compound?
Answer: The Anti-bacterial activity (MIC), strain ECO+ 15-4 was > 32 µg/mL.

Question: What about the Anti-bacterial activity (MIC), strain ECO− 15-1 ([4]; clinical isolate ECO− 15-1) of the same compound?
Answer: The Anti-bacterial activity (MIC), strain ECO− 15-1 was > 32 µg/mL.

Question: And the Anti-bacterial activity (MIC), strain ECO− 15-2 ([4]; clinical isolate ECO− 15-2)?
Answer: Its Anti-bacterial activity (MIC), strain ECO− 15-2 is > 32 µg/mL.

Question: What about the Anti-bacterial activity (MIC), strain ECO− 15-3 ([4]; clinical isolate ECO− 15-3) of the same compound?
Answer: Its Anti-bacterial activity (MIC), strain ECO− 15-3 is > 32 µg/mL.

Question: What about the Anti-bacterial activity (MIC), strain ECO− 15-4 ([4]; clinical isolate ECO− 15-4) of the same compound?
Answer: Its Anti-bacterial activity (MIC), strain ECO− 15-4 is > 32 µg/mL.

Question: And the Anti-bacterial activity (MIC), strain MRSA 15-1 ([5]; clinical isolate MRSA 15-1)?
Answer: The Anti-bacterial activity (MIC), strain MRSA 15-1 was 0.06 µg/mL.

Question: And the Anti-bacterial activity (MIC), strain MRSA 15-2 ([5]; clinical isolate MRSA 15-2)?
Answer: Its Anti-bacterial activity (MIC), strain MRSA 15-2 is 0.5 µg/mL.

Question: What about the Anti-bacterial activity (MIC), strain MRSA 15-3 ([5]; clinical isolate MRSA 15-3) of the same compound?
Answer: Its Anti-bacterial activity (MIC), strain MRSA 15-3 is 0.125 µg/mL.

Question: And the Anti-bacterial activity (MIC), strain MRSA 15-4 ([5]; clinical isolate MRSA 15-4)?
Answer: Its Anti-bacterial activity (MIC), strain MRSA 15-4 is 0.5 µg/mL.

Question: What about the Anti-bacterial activity (MIC) ([6]; strain EFA 15-1) of the same compound?
Answer: The Anti-bacterial activity (MIC) was > 32 µg/mL.

Question: And the Anti-bacterial activity (MIC) ([6]; strain EFA 15-2)?
Answer: Its Anti-bacterial activity (MIC) is > 32 µg/mL.

Question: And the Anti-bacterial activity (MIC) ([6]; strain EFA 15-3)?
Answer: Its Anti-bacterial activity (MIC) is > 32 µg/mL.

Question: And the Anti-bacterial activity (MIC) ([6]; strain EFA 15-4)?
Answer: The Anti-bacterial activity (MIC) was > 32 µg/mL.

Question: What about the Anti-bacterial activity (MIC) ([6]; strain EFA 15-5) of the same compound?
Answer: The Anti-bacterial activity (MIC) was > 32 µg/mL.

Question: What about the Anti-bacterial activity (MIC) ([6]; strain EFA 15-6) of the same compound?
Answer: The Anti-bacterial activity (MIC) was > 32 µg/mL.

Question: What about the Anti-bacterial activity (MIC) ([6]; strain EFA 15-9) of the same compound?
Answer: The Anti-bacterial activity (MIC) was > 32 µg/mL.

Question: What about the Anti-bacterial activity (MIC) ([7]; strain SPN 16-2) of the same compound?
Answer: The Anti-bacterial activity (MIC) was 0.03 µg/mL.

Question: And the Anti-bacterial activity (MIC) ([7]; strain SPN 16-4)?
Answer: Its Anti-bacterial activity (MIC) is 0.25 µg/mL.

Question: And the Anti-bacterial activity (MIC) ([8]; strain BCA 14-1)?
Answer: Its Anti-bacterial activity (MIC) is 0.5 µg/mL.

Question: What about the Anti-bacterial activity (MIC) ([8]; strain BCA 14-4) of the same compound?
Answer: Its Anti-bacterial activity (MIC) is 1 µg/mL.

Question: And the Anti-bacterial activity (MIC) ([8]; strain BCA 14-5)?
Answer: The Anti-bacterial activity (MIC) was 1 µg/mL.

Question: What about the Anti-bacterial activity (MIC) ([8]; strain BCA 14-6) of the same compound?
Answer: The Anti-bacterial activity (MIC) was 0.5 µg/mL.

Question: What about the Anti-bacterial activity (MIC) ([8]; strain BCA 14-7) of the same compound?
Answer: The Anti-bacterial activity (MIC) was 0.5 µg/mL.

Question: And the Anti-bacterial activity (MIC) ([8]; strain BCA 14-8)?
Answer: Its Anti-bacterial activity (MIC) is 0.25 µg/mL.

Question: And the Anti-bacterial activity (MIC) ([8]; strain BCA 14-10)?
Answer: The Anti-bacterial activity (MIC) was 0.25 µg/mL.

Question: What about the Anti-bacterial activity (MIC), strain MRSE 15-1 ([9]; clinical isolate MRSE 15-1) of the same compound?
Answer: The Anti-bacterial activity (MIC), strain MRSE 15-1 was 0.125 µg/mL.

Question: And the Anti-bacterial activity (MIC), strain MRSE 15-2 ([9]; clinical isolate MRSE 15-2)?
Answer: Its Anti-bacterial activity (MIC), strain MRSE 15-2 is 1 µg/mL.

Question: What about the Anti-bacterial activity (MIC), strain MRSE 15-3 ([9]; clinical isolate MRSE 15-3) of the same compound?
Answer: Its Anti-bacterial activity (MIC), strain MRSE 15-3 is 1 µg/mL.

Question: And the Anti-bacterial activity (MIC), strain MRSE 15-7 ([9]; clinical isolate MRSE 15-7)?
Answer: Its Anti-bacterial activity (MIC), strain MRSE 15-7 is 1 µg/mL.

Question: What about the inhibition at 30 µM ([10]; Homo sapiens, HCT-116, 72 h, read-out: HCT116 inhibition rate/%) of the same compound?
Answer: The inhibition at 30 µM was > 50%.

Question: And the HCT116 inhibition rate/% ([10]; 30 µM)?
Answer: The HCT116 inhibition rate/% was 52%.

Question: And the inhibition at 30 µM ([11]; Homo sapiens, A549, 72 h)?
Answer: The inhibition at 30 µM was > 50%.

Question: And the “Inhibition of proliferation, Lung cancer A549” value ([11]; 72 hours, 30 µM)?
Answer: Its value is 54%.

Question: What about the inhibition at 30 µM ([12]; Homo sapiens, Bel-7402, 72 h) of the same compound?
Answer: Its inhibition at 30 µM is > 50%.

Question: What about the “Inhibition of proliferation, Liver cancer BEL-7402” value ([12]; 72 hours, 30 µM) of the same compound?
Answer: The value was 67%.

Question: What about the inhibition at 30 µM [13] of the same compound?
Answer: Its inhibition at 30 µM is 44%.
